Reference: US9475806B2, “Complement factor B inhibitors and uses there of” (Novartis AG, priority 2013, dated 2016)
Read-outs that look alike come from different tables or passages of the source. One block for each compound: values may come before it.

Tests used:
[1] = biological target: T1, Recombinant human factor B (Homo sapiens (Human), UniProt P00751)
[2] = biological target: T1, Recombinant human factor B; assay: biochemical

T1 sequence (P00751 26-764): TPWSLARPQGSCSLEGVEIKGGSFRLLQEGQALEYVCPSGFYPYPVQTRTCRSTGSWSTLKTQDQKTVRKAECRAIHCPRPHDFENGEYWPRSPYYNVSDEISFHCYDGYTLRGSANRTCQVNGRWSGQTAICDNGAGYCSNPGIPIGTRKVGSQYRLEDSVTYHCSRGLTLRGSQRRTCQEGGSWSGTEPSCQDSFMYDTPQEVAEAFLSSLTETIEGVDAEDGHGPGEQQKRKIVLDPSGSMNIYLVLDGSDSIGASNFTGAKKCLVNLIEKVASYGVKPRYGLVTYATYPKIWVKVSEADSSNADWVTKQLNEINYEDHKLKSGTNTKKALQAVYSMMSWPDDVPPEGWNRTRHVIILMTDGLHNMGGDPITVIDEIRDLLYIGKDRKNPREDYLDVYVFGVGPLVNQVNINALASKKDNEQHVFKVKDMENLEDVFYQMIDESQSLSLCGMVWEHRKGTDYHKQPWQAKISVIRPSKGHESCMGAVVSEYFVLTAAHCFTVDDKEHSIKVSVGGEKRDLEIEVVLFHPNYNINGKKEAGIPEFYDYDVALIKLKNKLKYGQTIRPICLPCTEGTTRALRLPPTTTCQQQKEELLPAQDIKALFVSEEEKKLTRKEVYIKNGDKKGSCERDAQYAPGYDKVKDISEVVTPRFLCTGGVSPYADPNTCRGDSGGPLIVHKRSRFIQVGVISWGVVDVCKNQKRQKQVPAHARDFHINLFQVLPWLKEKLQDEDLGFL

SMILES: COc1cc(C)c2[nH]ccc2c1C(N)(c1nc2cc(C#N)cnc2[nH]1)C(F)(F)F (stereo not drawn) [5-B b) (+)]
IC50 [1]: 290 nM

SMILES: COc1cc(C)c2[nH]ccc2c1C(C)(N)c1nc2cc(C#N)cnc2[nH]1 (stereo not drawn) [10-B b) (+)]
IC50 [1]: 1380 nM

SMILES: CCc1cc(C)c2[nH]ccc2c1C(C)(NC)c1nc2cc(C#N)cnc2[nH]1 (racemic) [Example 15-D, (±)-2-(1-(5-Ethyl-7-methyl-1H-indol-4-yl)-1-(methylamino)ethyl)-3H-imidazo[4,5-b]pyridine-6-carbonitrile]
IC50 [2]: 540 nM

SMILES: Cc1cc(C2CC2)c(C(O)c2nc3cc(C#N)cnc3[nH]2)c2cc[nH]c12 (racemic) [Example 16-G, (±)-2-((5-Cyclopropyl-7-methyl-1H-indol-4-yl)(hydroxy)methyl)-3H-imidazo[4,5-b]pyridine-6-carbonitrile]
IC50 [2]: 460 nM

SMILES: Cc1cc(C2CC2)c(C(C)(O)c2nc3cc(C#N)cnc3[nH]2)c2cc[nH]c12 (racemic) [Example 17-C, (±)-2-(1-(5-Cyclopropyl-7-methyl-1H-indol-4-yl)-1-hydroxyethyl)-3H-imidazo[4,5-b]pyridine-6-carbonitrile]
IC50 [2]: 60 nM

SMILES: Cc1cc(C2CC2)c(C(N)(c2nc3cc(C#N)cnc3[nH]2)C(F)(F)F)c2cc[nH]c12 (racemic) [Example 17-G, (±)-2-(1-Amino-1-(5-cyclopropyl-7-methyl-1H-indol-4-yl)-2,2,2-trifluoroethyl)-3H-imidazo[4,5-b]pyridine-6-carbonitrile]
IC50 [2]: 90 nM

SMILES: COc1cc(C)c2[nH]ccc2c1C(C)(C)c1nc2cc(C#N)cnc2[nH]1 [Example 12-D, 2-(2-(5-Methoxy-7-methyl-1H-indol-4-yl)propan-2-yl)-3H-imidazo[4,5-b]pyridine-6-carbonitrile]
IC50 [2]: 40 nM

More lines, now with the values ahead:

IC50 [1]: 720 nM
SMILES: COc1cc(C)c2[nH]ccc2c1C(C)(OC)c1nc2cc(C#N)cnc2[nH]1 (stereo not drawn) [8-B b) (+)]

IC50 [1]: 3140 nM
SMILES: CNC(C)(c1nc2cc(C#N)cnc2[nH]1)c1c(OC)cc(C)c2[nH]ccc12 (stereo not drawn) [11-B b) (+)]

IC50 [1]: 1520 nM
SMILES: CNC(c1nc2cc(C#N)cnc2[nH]1)(c1c(OC)cc(C)c2[nH]ccc12)C(F)(F)F (stereo not drawn) [9-D b) (+)]

IC50 [1]: 50 nM
SMILES: COc1cc(C)c2[nH]ccc2c1C(C)(O)c1nc2cc(C#N)cnc2[nH]1 (stereo not drawn) [7-D b) (+)]

IC50 [1]: 2350 nM
SMILES: CCc1cc(C)c2[nH]ccc2c1C(O)(c1nc2cc(C#N)cnc2[nH]1)C(F)(F)F (stereo not drawn) [14-I b) (+)]

IC50 [1]: 700 nM
SMILES: COc1cc(C)c2[nH]ccc2c1C(O)c1nc2ncc(C#N)cc2[nH]1 (stereo not drawn) [6-C b) (+)]
